Source: patent US20130217702A1 (Richter Gedeon Nyrt., priority 2010, published 2013)
Counter-ions that a name gives are not always drawn.

Legend:
[1] = target: T1, recombinant human B1 receptors (Homo sapiens, UniProt P46663); assay: Functional assay: antagonist potency by cytosolic calcium measurement (plate reader fluorimeter) in CHO-B1 cells, agonist LysDABK; type: cell-based; conditions: CHO-B1 cells, inhibition of LysDABK (EC80)-evoked [Ca2+]i elevation; read-out: B1 func.
T1 construct: host or cells: CHO (CHO-B1)
T1 sequence (P46663 1-353): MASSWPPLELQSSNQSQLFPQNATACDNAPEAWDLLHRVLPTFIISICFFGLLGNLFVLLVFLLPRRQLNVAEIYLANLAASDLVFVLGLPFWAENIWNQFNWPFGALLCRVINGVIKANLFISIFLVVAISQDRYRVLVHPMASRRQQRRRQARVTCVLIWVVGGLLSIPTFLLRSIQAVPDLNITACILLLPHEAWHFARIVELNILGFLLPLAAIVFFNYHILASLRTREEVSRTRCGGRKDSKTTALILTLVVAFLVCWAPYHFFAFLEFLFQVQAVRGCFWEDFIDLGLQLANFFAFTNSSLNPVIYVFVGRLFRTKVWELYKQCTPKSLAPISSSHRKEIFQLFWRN
Procedure, shortened: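 IC50 is the concentration giving half-maximal inhibition of the LysDABK (EC80) calcium response, fitted from at least three experiments. CHO cells stably expressing human B1 were dye-loaded, exposed to compound for 20-25 min, then read by fluo-4 fluorescence (ΔF/F) at 37 °C.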

[2] = target: T2, human recombinant bradykinin B1 receptor (Homo sapiens, UniProt P46663); assay: Human recombinant bradykinin B1 receptor competitive radioligand binding; conditions: hB1 expressed in CHO cells, [3H]-[Des-Arg10] Kallidin radioligand; read-out: B1 binding
T2 construct: host or cells: CHO cells, clone hB1-A5
T2 sequence (P46663 1-353): T1 sequence (P46663 1-353)
Procedure, shortened: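 Competition radioligand binding on CHO-expressed hB1 membranes, using [3,4-prolyl-3,4-^3H(N)]-[Des-Arg^10] Kallidin as tracer, 15 min at 25° C. Excess Lys-des-Arg^9-Bradykinin (10 μM) set nonspecific binding. Sigmoidal fits of at least seven concentrations gave IC50, converted to Ki via Cheng-Prusoff; KD from Scatchard.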

COc1ccc2c(c1)cc(-c1nnc(C)o1)n2-c1ccc(CNC(=O)C2(NC(=O)CC(F)(F)F)CC2)cc1 [Example 124, 1-(3,3,3-Trifluoro-propionylamino)-cyclopropanecarboxylic acid 4-[5-methoxy-2-(5-methyl-[1,3,4]oxadiazol-2-yl)-indol-1-yl]-benzylamide]
IC50 [1]: 20 to 100 nM
Ki [2]: 20 to 100 nM

Cn1nnc(-c2c(Cl)c3ccccc3n2-c2ccc(CNC(=O)C3(NC(=O)c4cccc(F)c4)CC3)cc2)n1 [Example 31, N-(1-{4-[3-chloro-2-(2-methyl-2H-tetrazol-5-yl)-indol-1-yl]-benzylcarbamoyl}-cyclopropyl)-3-fluoro-benzamide]
IC50 [1]: < 20 nM
Ki [2]: < 20 nM

Cn1nnc(-c2c(Cl)c3ccccc3n2-c2ccc(CNC(=O)C3(NC(=O)C(F)(F)F)CC3)c(F)c2)n1 [Example 4, 1-(2,2,2-Trifluoro-acetylamino)-cyclopropanecarboxylic acid 4-[3-chloro-2-(2-methyl-2H-tetrazol-5-yl)-indol-1-yl]-2-fluorobenzylamide]
IC50 [1]: < 20 nM
Ki [2]: < 20 nM

Cc1nc(-c2c(Cl)c3ccccc3n2-c2ccc([C@@H](C)NC(=O)C3(NC(=O)C(F)(F)F)CC3)c(F)c2)no1 [Example 190, 1-(2,2,2-Trifluoro-acetylamino)-cyclopropanecarboxylic acid ((R)-1-{4-[3-chloro-2-(5-methyl-[1,2,4]oxadiazol-3-yl)-indol-1-yl]-2-fluoro-phenyl}-ethyl)-amide]
IC50 [1]: < 20 nM
Ki [2]: < 20 nM

Cc1nc(-c2c(Cl)c3cc(F)ccc3n2-c2ccc(CNC(=O)C3(NC(=O)c4cc(C5CC5)on4)CC3)cc2)no1 [Example 90, 5-Cyclopropyl-isoxazole-3-carboxylic acid (1-{4-[3-chloro-5-fluoro-2-(5-methyl-[1,2,4]oxadiazol-3-yl)-indol-1-yl]-benzylcarbamoyl}-cyclopropyl)-amide]
IC50 [1]: < 20 nM
Ki [2]: < 20 nM

Cc1cc(C(=O)NC2(C(=O)NCc3ccc(-n4c(-c5nnn(C)n5)c(Cl)c5ccccc54)cc3)CC2)no1 [Example 26, 5-Methyl-isoxazole-3-carboxylic acid (1-{4-[3-chloro-2-(2-methyl-2H-tetrazol-5-yl)-indol-1-yl]-benzylcarbamoyl}-cyclopropyl)-amide]
IC50 [1]: < 20 nM
Ki [2]: < 20 nM

Cc1nc(-c2c(Cl)c3ccccc3n2-c2ccc(CNC(=O)C3(NC(=O)c4ccc(C#N)cc4)CC3)cc2)no1 [Example 170, N-(1-{4-[3-Chloro-2-(5-methyl-[1,2,4]oxadiazol-3-yl)-indol-1-yl]-benzylcarbamoyl}-cyclopropyl)-4-cyano-benzamide]
IC50 [1]: 20 to 100 nM
Ki [2]: < 20 nM

Cc1nc(-c2c(Cl)c3cc(Cl)ccc3n2-c2ccc(CNC(=O)C3(NC(=O)c4cc(C5CC5)on4)CC3)cc2)no1 [Example 75, 5-Cyclopropyl-isoxazole-3-carboxylic acid (1-{4-[3,5-dichloro-2-(5-methyl-[1,2,4]oxadiazol-3-yl)-indol-1-yl]-benzylcarbamoyl}-cyclopropyl)-amide]
IC50 [1]: < 20 nM
Ki [2]: < 20 nM

Cc1nc(-c2c(Cl)c3cc(F)ccc3n2-c2ccc(CNC(=O)C3(NC(=O)c4cncc(C(F)(F)F)c4)CC3)cc2)no1 [Example 91, N-(1-{4-[3-Chloro-5-fluoro-2-(5-methyl-[1,2,4]oxadiazol-3-yl)-indol-1-yl]-benzylcarbamoyl}-cyclopropyl)-5-trifluoromethyl-nicotinamide]
IC50 [1]: < 20 nM
Ki [2]: < 20 nM

Cc1nc(-c2c(Cl)c3ccccc3n2-c2ccc(CNC(=O)C3(NC(=O)C4CC4C)CC3)cc2)no1 (centres unmarked) [Example 138, 2-Methyl-cyclopropanecarboxylic acid (1-{4-[3-chloro-2-(5-methyl-[1,2,4]oxadiazol-3-yl)-indol-1-yl]-benzylcarbamoyl}-cyclopropyl)-amide]
IC50 [1]: 20 to 100 nM
Ki [2]: < 20 nM

COc1ccc2c(c1)c(Cl)c(-c1nc(C)no1)n2-c1ccc(CNC(=O)C2(NC(=O)c3cc(OC)no3)CC2)cc1 [Example 51, 3-Methoxy-isoxazole-5-carboxylic acid (1-{4-[3-chloro-5-methoxy-2-(3-methyl-[1,2,4]oxadiazol-5-yl)-indol-1-yl]-benzylcarbamoyl}-cyclopropyl)-amide]
IC50 [1]: < 20 nM
Ki [2]: < 20 nM

Cc1nc(-c2c(Cl)c3ccccc3n2-c2ccc(CNC(=O)C3(NC(=O)c4cccc(N)c4)CC3)cc2)no1 [Example 186, 3-Amino-N-(1-{4-[3-chloro-2-(5-methyl-[1,2,4]oxadiazol-3-yl)-indol-1-yl]-benzylcarbamoyl}-cyclopropyl)-benzamide hydrochloride]
IC50 [1]: < 20 nM
Ki [2]: < 20 nM

CCOC(=O)c1c(Cl)c2ccccc2n1-c1ccc(CNC(=O)C2(NC(=O)c3cc(OC)no3)CC2)cc1 [Example 34, 3-Chloro-1-{4-[({1-[(3-methoxy-isoxazole-5-carbonyl)-amino]-cyclopropane-carbonyl}-amino)-methyl]-phenyl}-1H-indole-2-carboxylic acid ethyl ester]
IC50 [1]: 20 to 100 nM
Ki [2]: < 20 nM

Cc1nc(-c2c(Cl)c3ccccc3n2-c2ccc(CNC(=O)C3(NC(=O)c4csnn4)CC3)cc2)no1 [Example 174, [1,2,3]Thiadiazole-4-carboxylic acid (1-{4-[3-chloro-2-(5-methyl-[1,2,4]oxadiazol-3-yl)-indol-1-yl]-benzylcarbamoyl}-cyclopropyl)-amide]
IC50 [1]: < 20 nM
Ki [2]: < 20 nM

COc1cc(C(=O)NC2(C(=O)NCc3ccc(-n4c(-c5noc(C)n5)c(F)c5cc(F)ccc54)cc3)CC2)on1 [Example 198, 3-Methoxy-isoxazole-5-carboxylic acid (1-{4-[3,5-difluoro-2-(5-methyl-[1,2,4]oxadiazol-3-yl)-indol-1-yl]-benzylcarbamoyl}-cyclopropyl)-amide]
IC50 [1]: < 20 nM
Ki [2]: < 20 nM

Cc1ccc(C(=O)NC2(C(=O)NCc3ccc(-n4c(-c5noc(C)n5)c(Cl)c5ccccc54)cc3)CC2)cn1 [Example 154, N-(1-{4-[3-Chloro-2-(5-methyl-[1,2,4]oxadiazol-3-yl)-indol-1-yl]-benzylcarbamoyl}-cyclopropyl)-6-methyl-nicotinamide]
IC50 [1]: < 20 nM
Ki [2]: < 20 nM

Cc1nc(-c2c(Cl)c3ccccc3n2-c2ccc(CNC(=O)C3(NC(=O)c4cccnc4)CC3)cc2)no1 [Example 158, N-(1-{4-[3-Chloro-2-(5-methyl-[1,2,4]oxadiazol-3-yl)-indol-1-yl]-benzylcarbamoyl}-cyclopropyl)-nicotinamide]
IC50 [1]: < 20 nM
Ki [2]: < 20 nM

CNC(=O)c1c(Cl)c2ccccc2n1-c1ccc(C(C)NC(=O)C2(NC(=O)C(F)(F)F)CC2)cc1 (centres unmarked) [Example 32, 3-Chloro-1-[4-(1-{[1-(2,2,2-trifluoro-acetylamino)-cyclopropanecarbonyl]-amino}-ethyl)-phenyl]-1H-indole-2-carboxylic acid methylamide]
IC50 [1]: < 20 nM
Ki [2]: < 20 nM

Cc1nc(-c2c(Cl)c3ccccc3n2-c2ccc(CNC(=O)C3(NC(=O)c4cccnc4Cl)CC3)cc2)no1 [Example 153, 2-Chloro-N-(1-{4-[3-chloro-2-(5-methyl-[1,2,4]oxadiazol-3-yl)-indol-1-yl]-benzylcarbamoyl}-cyclopropyl)-nicotinamide]
IC50 [1]: < 20 nM
Ki [2]: < 20 nM
